Values quoted from earlier work in paper PMC10010643 (Cancer Chemotherapy and Pharmacology, 2023).

System: human liver stellate cell line
Parameters: method as in PMID 36154172
Conditions: in vitro; cited from earlier work

SMILES: OC[C@H]1O[C@H](Sc2cncc(Br)c2)[C@H](O)[C@@H](n2cc(-c3cc(F)c(F)c(F)c3)nn2)[C@H]1O [GB1211]
- TGFβ-induced fibrosis gene expression: inhibiting TGFβ-induced fibrosis gene expression
